Assay results: publication PMC9775191, “A Subset Screen of the Compounds Australia Scaffold Library Identifies 7-Acylaminodibenzoxazepinones as Potent and Selective Hits for Anti-Giardia Drug Discovery” (Biomedicines, 2022)

System: G. duodenalis BRIS/91/HEPU/1279
Test: Primary Giardia screen at 10 µM (live-cell imaging, automated counting)
Format: cell-based, Giardia duodenalis
Conditions: for % Inhibition n=1 24h / % Inhibition n=1 48h: first singlicate assay; for % Inhibition n=2 24h / % Inhibition n=2 48h: re-assessment
Procedure, shortened: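 Singlicate, 10 μM final, 0.2% DMSO; sealed chambers, 3% O2/5% CO2/N2. Counts by live-cell imaging at 24 h and 48 h. % growth vs vehicle, media background subtracted; Z' per plate.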

Compound | % Inhibition n=1 48h [%] | further results
COc1ccc(C2=Nc3ccccc3N(Cc3cccc(F)c3)C(=O)C2)cc1 [SN00791806] | 50.8 | Average % Inhibition 24h: 8.7%; % Inhibition n=1 24h: 17.4%; % Inhibition n=2 24h: 0.0%; Average % Inhibition 48h: 30.2%; % Inhibition n=2 48h: 9.6%
COc1ccc(OCCn2c(NC(=O)c3ccc(OC)cc3)nc3ccccc32)cc1 [SN00783884] | 19.5 | 
Cc1ccc(N2CC(C(=O)N3CCCC3c3nc(-c4cccc(C)c4)no3)CC2=O)cc1 (centres unmarked) [SN00797413] | 0.0 | 
CC(=O)c1c(C)[nH]c(C(=O)N2CCCC2c2nc(-c3cccc(C(F)(F)F)c3)c[nH]2)c1C (centres unmarked) [SN00772247] | 17.0 | 
CC(C)n1cc2cc(C(=O)NCCCN3CCCc4ccccc43)sc2c1 [SN00802034] | 3.6 | 
CCCNC(=O)c1cnn2c(C(F)F)cc(-c3ccc(C)cc3)nc12 [SN00783826] | 40.8 | 
Cc1ccc(NS(=O)(=O)c2c(C)n[nH]c2C)cc1 [SN00784820] | 8.8 | 
O=S1(=O)C[C@H](NCc2ccccn2)[C@@H](S(=O)(=O)c2ccccc2)C1 [SN00786609] | 0.0 | 
O=C(c1ccoc1)N1CCC(Oc2nccnc2N2CCc3ccccc32)C1 (centres unmarked) [SN00800151] | 22.8 | 
COc1ccc(-c2cc3c(=O)n(Cc4cccc(F)c4)ccn3n2)cc1 [SN00793208] | 0.0 | 
CCOC(=O)c1ccccc1NC(=O)NC(c1ccccc1)c1nnc(-c2ccccc2)o1 (centres unmarked) [SN00792113] | 0.0 | 
O=C(NCCC1=CCCCC1)c1cccn1-c1cccnc1 [SN00788993] | 14.0 | 
COc1ccc(-c2cccc(NC(=O)c3ccccc3Br)c2)nn1 [SN00799416] | 16.0 | 
CC(=O)Nc1cc(C(=O)NCCCN2CCC(C)CC2)ccc1S(=O)(=O)c1ccc(Cl)cc1 [SN00794609] | 23.9 | 
CC1CCN(CCCNC(=O)c2ccc(-c3nc(-c4ccccc4)no3)cc2)CC1 [SN00795676] | 23.6 | 
Cc1ccc(-c2[nH]c(-c3ccccc3)nc2S(=O)(=O)CC(=O)Nc2ccccc2)cc1 [SN00785272] | 11.7 | 
COc1cccc(CNC(=O)Cn2ccc3sccc3c2=O)c1 [SN00797886] | 6.6 | 
Cc1cc(C(F)(F)F)nn1CC(=O)Nc1cc(Oc2cccnc2)cc([N+](=O)[O-])c1 [SN00783379] | 22.1 | 
CN(C)C(=O)N1CCN(Cc2nc3c(cnn3C)c(=O)[nH]2)CC1 [SN00807792] | 0.0 | 
Cc1ccc(NC(=O)Cn2nnc(-c3nc(-c4ccccc4)no3)c2N)cc1C [SN00788081] | 2.5 | 
CCc1noc(C2(NC(=O)c3cc(-c4ccccc4)n[nH]3)CCCCC2)n1 [SN00800487] | 0.0 | 
CC(NC(=O)Cc1csc(Cc2ccccn2)n1)c1ccc(F)cc1 (centres unmarked) [SN00779507] | 0.0 | 
CN(C)C(=O)c1ccc(OC2CCN(Cc3ccccn3)C2)nc1 (centres unmarked) [SN00800120] | 6.6 | 
O=C(c1csc(-c2ccncc2)n1)N1CCN(c2ccccc2)CC1 [SN00794830] | 15.8 | 
O=C(NCc1ccc2c(c1)CCN2C(=O)c1ccccc1)C1CCN(S(=O)(=O)N2CCCC2)CC1 [SN00793589] | 7.9 | 

Compound | % Inhibition n=1 48h [%] | further results
O=C(Nc1ccnn1Cc1ccccn1)c1cccnc1Oc1ccccc1 [SN00775947] | 2.6 | 
O=C(Cc1scnc1-c1cccs1)N1CCN(c2ccccn2)CC1 [SN00786601] | 0.0 | 
CC1CCc2nn(CC(=O)NC(C)c3ccccc3)cc2C1 (centres unmarked) [SN00785614] | 0.0 | 
COc1ccc(CCNS(=O)(=O)c2cccc(-c3nc(-c4ccc(C)cc4)no3)c2)cc1OC [SN00797669] | 6.7 | 
O=C(Nc1ccc2c(c1)OCO2)C1CCN(Cc2nnnn2-c2ccccc2)CC1 [SN00776590] | 4.9 | 
COCCNC(=O)N1Cc2c(C)nn(-c3ccccc3)c2-n2cccc2C1c1cccc(C)c1 (centres unmarked) [SN00785355] | 10.0 | 
CC(C)n1ncc2c(C(=O)N3CCC(NS(=O)(=O)c4cccs4)CC3)cc(C3CC3)nc21 [SN00770479] | 0.0 | 
CN(C)C(=O)CN1CCCN(Cc2ncc(C(C)(C)C)o2)CC1 [SN00778763] | 1.9 | 
FC(F)Oc1ccc(-c2csc(Cc3nnc4n3CCCCC4)n2)cc1 [SN00776417] | 34.2 | Average % Inhibition 24h: 12.3%; % Inhibition n=1 24h: 22.0%; % Inhibition n=2 24h: 2.6%; Average % Inhibition 48h: 19.6%; % Inhibition n=2 48h: 5.0%
C1CNCC2CCCN2C1 (centres unmarked) [SN00781270] | 3.1 | 
COc1cccc(-c2noc(C3CCCCN3C(=O)Nc3ccc(Cl)cc3Cl)n2)c1 (centres unmarked) [SN00802548] | 5.7 | 
O=C1CC(c2noc(-c3ccc(F)cc3)n2)CN1c1ccc(F)cc1 (centres unmarked) [SN00801778] | 9.0 | 
Cc1c(C(=O)N2CCCCC2)c(S(=O)(=O)N2CCN(c3ccccn3)CC2)c(C)n1C [SN00791445] | 0.0 | 
CCN(c1ccc(-c2csc(Cc3nnc4n3CCCCC4)n2)cc1)S(C)(=O)=O [SN00776436] | 17.3 | 
Cn1cnc2c1CCN(Cc1csc(-c3ccco3)n1)C2 [SN00781992] | 24.5 | 
Cc1cccc(NC(=O)N2CCN(c3cc(C)nc(N4CCCC4)n3)CC2)c1 [SN00786874] | 49.3 | Average % Inhibition 24h: 3.5%; % Inhibition n=1 24h: 7.1%; % Inhibition n=2 24h: 0.0%; Average % Inhibition 48h: 39.9%; % Inhibition n=2 48h: 30.5%
CCCN(C)C(=O)c1ccc(-c2ccnc(N3CCCCC3)n2)cc1 [SN00799110] | 0.0 | 
COc1ccccc1C(=O)n1ccn(S(=O)(=O)c2ccc(C)cc2)c1=O [SN00789029] | 6.3 | 
COc1ccc(OC)c(NC(=O)C2CC(=O)N(c3cccc(NC(C)=O)c3)C2)c1 (centres unmarked) [SN00797576] | 0.0 | 
O=C1CC(C(=O)N2CCN(c3ccccc3)CC2)CN1CCc1ccccc1 (centres unmarked) [SN00800474] | 6.2 | 
O=C(c1cnn(-c2ccccc2)c1C1CC1)N1CCc2ccccc21 [SN00775113] | 0.5 | 
Cc1ccc(NC(=O)CN2N=C(C(=O)Nc3ccc(F)cc3)CCC2=O)cc1F [SN00799502] | 8.0 | 
Cn1cccc1C1CCCCCN1C(=O)CCSCc1nc2sc3c(c2c(=O)[nH]1)CCC3 (centres unmarked) [SN00778065] | 67.7 | Average % Inhibition 24h: 0.2%; % Inhibition n=1 24h: 0.0%; % Inhibition n=2 24h: 0.4%; Average % Inhibition 48h: 38.7%; % Inhibition n=2 48h: 9.8%
O=C(CSc1ccccc1)NCC1(N2CCCCC2)CCOCC1 [SN00807846] | 1.8 | 
Cc1ccccc1C(=O)N1CCN(C(=O)c2[nH]nc3ccccc23)CC1 [SN00770261] | 25.4 | 

Compound | % Inhibition n=1 48h [%] | further results
CN(C[C@@]12CCC[C@H]1N(C)C(=O)CC2)C(=O)c1ccc2c(c1)OCO2 (relative stereo) [SN00801319] | 28.7 | 
NCC1CN(C2CC2)CCO1 (centres unmarked) [SN00782004] | 23.7 | 
COc1ccc(C(=O)N2c3ccccc3NC(=O)CC2C)cc1OC (centres unmarked) [SN00777269] | 0.0 | 
Cn1ncc2c(=O)[nH]c(CN3CCCC3Cc3ccccc3)nc21 (centres unmarked) [SN00772513] | 21.0 | 
COc1ccc(-c2nc(S(=O)(=O)CC(=O)Nc3ccc(F)cc3)c(-c3ccc(OC)cc3)[nH]2)cc1 [SN00785276] | 12.5 | 
CN1CC(c2nc3ccccc3[nH]2)CC1=O (centres unmarked) [SN00785951] | 0.0 | 
Cc1csc(C2(NC(=O)Nc3ccc4c(c3)CCO4)CCC2)n1 [SN00772607] | 20.7 | 
Cc1nc(-c2ccccn2)cc2nn(CC(=O)N3CCC(Cc4ccccc4)CC3)c(=O)n12 [SN00799441] | 4.9 | 
CC(=O)c1cccc(NC(=O)C2CCCN(S(=O)(=O)c3c(C)noc3C)C2)c1 (centres unmarked) [SN00784980] | 0.0 | 
Cc1ccnc(Nc2nc(C)c(C(=O)NC3CC3)s2)c1 [SN00797622] | 13.3 | 
COc1ccc(NC(=O)c2cn(-c3ccc(-c4noc(C5CCCC5)n4)cc3)nc2C)cc1OC [SN00789967] | 25.5 | 
COCCN1CCCN(C(=O)C2CCCN(S(C)(=O)=O)C2)CC1 (centres unmarked) [SN00782901] | 15.1 | 
CCOC(=O)c1sc2nc(CN3CCCCC3)nc(NCCC(=O)OC)c2c1C [SN00775388] | 0.0 | 
O=C(Nc1nnc(-c2ccccn2)[nH]1)C1CC(=O)N(CC(F)(F)F)C1 (centres unmarked) [SN00776806] | 9.5 | 
O=C(c1cc(=O)[nH]c2ccccc12)N1CCN(Cc2ccc3c(c2)OCO3)CC1 [SN00774920] | 0.0 | 
CCOc1ccc(S(=O)(=O)N(C)Cc2c(C)nn(C)c2C)cc1 [SN00802962] | 2.3 | 
O=C(Nc1ccc(N2CCN(C3CCCCC3)C2=O)nc1)c1ccc(Cl)s1 [SN00801852] | 26.3 | 
CCc1ccc(NC(=O)[C@@H]2c3cc(OC)c(OC)cc3C(=O)N3CCCC[C@@H]23)cc1 (relative stereo) [SN00784165] | 28.1 | 
Cc1ccc2nc(-c3ccc(C)c(NC(=O)c4cccnc4)c3)[nH]c2c1 [SN00787045] | 8.2 | 
Cc1nnc2sc(-c3ccc(CNC(=O)c4cccc(Br)c4)cc3)nn12 [SN00794033] | 41.7 | 
CSc1ccc(CNC(=O)c2cn3cc(C)ccc3n2)cc1 [SN00799926] | 26.2 | 
CC1(C)C(NC(=O)Nc2ccc([N+](=O)[O-])cc2)C2CCCOC21 (centres unmarked) [SN00782105] | 16.3 | 
CCn1ccc(C(=O)Nc2ccc3c(c2)Sc2ncccc2C(=O)N3C)n1 [SN00800580] | 19.0 | 
CCc1nnc(-c2cc3ccccc3n2CC(=O)N2CCCc3ccccc32)o1 [SN00789262] | 0.0 | 
CCOc1ccc(-n2c(=O)c3c4c(sc3n(Cc3cccnc3)c2=O)CCC4)cc1 [SN00784617] | 0.0 | 
